Like-named read-outs stand apart in the source and are kept apart here.
Columns and labels:
TSPO [1] = system: TSPO; set-up: method as in PMID 25654303; conditions: relative to XBD173; cited from earlier work
neurosteroid synthesis = system: neurosteroid synthesis; set-up: method as in PMID 25654303; conditions: relative to XBD173; cited from earlier work
rat C6 glioma cells = test: Pregnenolone production in C6 glioma cells (ELISA); format: cell-based; conditions: for Emax at 100 µM / EC50: Rattus norvegicus, 2 h; for Emax at 100 µM: read-out: Emax (at 100 μM) (vehicle set to 100%); for EC50: read-out: EC50 (pregnenolone production); for steroidogenic efficacy, ranking in words: among all tested TSPO ligands
TSPO [2] = molecular target: T1, TSPO (Rattus norvegicus, UniProt P16257); test: Simplified (one-concentration) competition kinetic association assay; format: binding; conditions: for dissociation rate of the ligand from TSPO (rapid or slow competitor of [3H]PK11195): shape of [3H]PK11195 association curve, ligand at three-fold Ki; for Kd / koff / kon: unlabeled ligand at three-fold Ki only; for Kd: read-out: Kinetically-derived Kd = Koff/Kon
T1 construct: Membranes from rat kidneys were prepared as described previously; from tissue; host or cells: rat kidney membranes
Protocol: The unlabeled TSPO ligand kinetic parameters were assessed using the theoretical model of Motulsky and Mahan[32]. Unlike methods in which one compound is pre-equilibrated with the receptor, this approach involves the simultaneous addition of both radioligand and competitor to receptor preparation, so that at t = 0 all receptors are unoccupied. […] The degree of bound to TSPO was assessed at multiple time points by filtration harvesting and liquid scintillation counting, as above described. […] For ‘simplified’ competition kinetic association assays, the experiments were performed using concentration of unlabeled TSPO ligands corresponding to three-fold their Ki.
Association and dissociation rates for unlabeled TSPO ligands were calculated by fitting the data in the competition association model using the ‘kinetics of competitive binding’ assay, defining the amount of radioligand bound to receptor ([RL]) as a function of time[32]: […]

TSPO [3] = molecular target: T1, TSPO; test: [3H]PK11195 binding displacement assay, rat kidney membranes; conditions: read-out: Equilibrium Ki
Protocol: (§1) Membranes from rat kidneys were prepared as described previously. All the experimental procedures were carried out following the guidelines of the European Community Council Directive 86–609 and have been approved by the Committee for animal experimentation of the University of Pisa. The resulting membrane pellets were aliquoted and frozen at –20 °C. For all radioligand binding assays, an aliquot of membranes was thawed, suspended in assay buffer (AB, Tris-HCl 50 mM, pH 7.4) and homogenized using Ultraturrax. In cell membrane homogenate, protein content was measured by the Bradford method[52] using the Bio-Rad Protein Assay reagent.
(§2) All experiments were analyzed by either linear or non linear regression using Prism 5.0 (GraphPad Software Inc., San Diego, CA). […] Competition displacement binding were fitted to sigmoidal (variable slope) curves.

rat = conditions: cited from earlier work; for anxiolytic activity in EPM test: rat
GABAA receptor = system: GABAA receptor; set-up: method as in PMID 20728278; conditions: conditioned medium of treated glial cells; cited from earlier work
human glial cell model = system: human glial cell model; set-up: method as in PMID 20728278; conditions: cited from earlier work
TSPO [4] = molecular target: T1, TSPO; test: [3H]PK11195 binding saturation assay, rat kidney membranes; conditions: [3H]PK11195 saturation binding
Protocol: as §1, §2

[5] = pregnenolone production at 100 μM ligand, C6 cells
[6] = C6 cells, 0-100 μM ligand, serum-free
[7] = displacement of 1 nM [3H]PK11195, rat kidney membranes, 0 °C

| Structure (SMILES) | Emax at 100 µM (rat C6 glioma cells; [5]) | EC50 (rat C6 glioma cells; [6]) | dissociation rate of the ligand from TSPO (rapid or slow competitor of [3H]PK11195) (TSPO [2]) | Kd (TSPO [2]) | Ki (TSPO [3]; [7]) | koff (TSPO [2]) | kon (TSPO [2]) | Ki (TSPO [3]) | other results |
| --- | --- | --- | --- | --- | --- | --- | --- | --- | --- |
| CCNC1=Nc2ccc(Cl)cc2C(C)(c2ccccc2)O1 (stereo not shown) [Etifoxine] |  |  |  |  |  |  |  |  | binding affinity to TSPO, fold lower than XBD173 (TSPO [1]): approximately 140 fold; potency to stimulate neurosteroidogenesis compared with XBD173 (neurosteroid synthesis): more potent |
| CCCN(CCC)C(=O)C(=O)c1c(-c2ccccc2)[nH]c2ccccc12 [PIGA719] | 146 ± 2% | 12900 ± 1500 nM | rapid | 11.9 ± 1 nM | 12.2 ± 1.1 nM |  |  |  |  |
| CCCCCCN(CCCCCC)C(=O)C(=O)c1c(-c2ccccc2)[nH]c2ccccc12 [PIGA720] | 144 ± 4% | 29700 ± 3100 nM | rapid | 1.79 ± 0.24 nM | 1.4 ± 0.28 nM |  |  |  |  |
| CCCCCCN(CCCCCC)C(=O)C(=O)c1c(-c2ccccc2)[nH]c2ccc(Cl)cc12 [PIGA745] | 140 ± 5% | 34600 ± 3600 nM | rapid | 15.1 ± 1.16 nM |  | 0.000967 s⁻¹ | 64000 M⁻¹ s⁻¹ | 13.1 ± 1.16 nM |  |
| CCN(Cc1ccccc1)C(=O)C(=O)c1c(-c2ccc(Cl)cc2)[nH]c2ccc(Cl)cc12 [PIGA823] | 272 ± 11% | 12200 ± 1300 nM | slow | 1.86 ± 0.17 nM | 3.3 ± 0.31 nM |  |  |  | steroidogenic efficacy, ranking in words (rat C6 glioma cells; C6 cells): highest efficacy; anxiolytic activity in EPM test (rat): significant anxiolytic activity |
| CCCCN(CCCC)C(=O)C(=O)c1c(-c2ccc(Cl)cc2)[nH]c2ccc(Cl)cc12 [PIGA835] | 149 ± 4% | 25600 ± 2300 nM | rapid | 1 ± 0.19 nM |  | 0.000967 s⁻¹ | 963000 M⁻¹ s⁻¹ | 0.91 ± 0.11 nM |  |
| CCCN(CCC)C(=O)C(=O)c1c(-c2ccc(C)cc2)[nH]c2ccccc12 [PIGA839] | 254 ± 5% | 16300 ± 1400 nM | slow | 5.45 ± 0.6 nM | 5.5 ± 0.47 nM | 0.00015 s⁻¹ | 28200 M⁻¹ s⁻¹ |  | steroidogenic efficacy, ranking in words (rat C6 glioma cells; C6 cells): highest efficacy; 36Cl- uptake into cerebral cortical synaptoneurosomes (GABAA receptor): potentiated; anxiolytic activity in EPM test (rat): significant anxiolytic activity; allopregnanolone in medium of treated cells (human glial cell model): high levels |
| CCCCCCN(CCCCCC)C(=O)C(=O)c1c(-c2ccccc2)[nH]c2ccc([N+](=O)[O-])cc12 [PIGA925] | 166 ± 5% | 9710 ± 1000 nM | rapid | 10 ± 1.13 nM |  | 0.00113 s⁻¹ | 113000 M⁻¹ s⁻¹ | 12.2 ± 3.14 nM |  |
| CCCN(CCC)C(=O)C(=O)c1c(-c2ccc3ccccc3c2)[nH]c2ccccc12 [PIGA1128] | 179 ± 7% | 26100 ± 1500 nM | slow | 0.22 ± 0.05 nM | 0.31 ± 0.02 nM | 0.0003 s⁻¹ | 1.35e+06 M⁻¹ s⁻¹ |  |  |
| CCCCCN(C)C(=O)C(=O)c1c(-c2ccc3ccccc3c2)[nH]c2ccccc12 [PIGA1138] | 275 ± 5% | 13100 ± 1400 nM | slow | 0.17 ± 0.03 nM |  | 0.000117 s⁻¹ | 717000 M⁻¹ s⁻¹ | 0.34 ± 0.03 nM | steroidogenic efficacy, ranking in words (rat C6 glioma cells; C6 cells): highest efficacy |
| CCCCCCN(CCCCCC)C(=O)C(=O)c1c(-c2ccc(C(=O)O)cc2)[nH]c2ccccc12 [PIGA1214] | 141 ± 4% | 92000 ± 5600 nM | rapid | 332 ± 15 nM |  |  |  | 343 ± 15.9 nM |  |
| CCC(C)N(C)C(=O)c1cc2ccccc2c(-c2ccccc2Cl)n1 (stereo not shown) [PK11195, reference compound] | 153 ± 4% |  |  |  |  |  |  |  | EC50 (rat C6 glioma cells): 19500 ± 1800 nM; anxiolytic effect in EPM test (rat): does not determine anxiolytic effect; Bmax (TSPO [4]): 6498 ± 500 fmol/mg of proteins |
| CN1C(=O)CN=C(c2ccc(Cl)cc2)c2cc(Cl)ccc21 [Ro5-4864, reference compound] |  |  | rapid |  |  |  |  |  | EC50 (rat C6 glioma cells): 36200 ± 2500 nM; Emax at 100 µM (rat C6 glioma cells): 150 ± 4%; anxiolytic effect in EPM test (rat): does not determine anxiolytic effect |

From publication PMC4707509, “TSPO ligand residence time: a new parameter to predict compound neurosteroidogenic efficacy” (Scientific Reports, 2016)
